Measured values taken from ChEMBL document CHEMBL1139192, “Novel bis(indolyl)maleimide pyridinophanes that are potent, selective inhibitors of glycogen synthase kinase-3” (Bioorg Med Chem Lett, 2007).

How the values were obtained:
[1] = target: Glycogen synthase kinase-3 beta (Homo sapiens, UniProt P49841); test: Inhibition of human recombinant GSK3-beta
[2] = target: Tyrosine-protein kinase ABL2 (Mus musculus) (UniProt Q4JIM5); test: Residual activity of mouse Arg at 1 uM relative to control
[3] = target: Receptor-type tyrosine-protein kinase FLT3 (Homo sapiens) (UniProt P36888); test: Residual activity of human Flt3 at 1 uM relative to control
[4] = species on record: Homo sapiens; test: Residual activity of human PKBalpha at 1 uM relative to control
[5] = target: Mitogen-activated protein kinase 1 (Homo sapiens) (UniProt P28482); test: Inhibition of MAPK1 at 1 uM relative to control; values are per cent of control
Chain of Mitogen-activated protein kinase 1 (Homo sapiens) (P28482 whole entry): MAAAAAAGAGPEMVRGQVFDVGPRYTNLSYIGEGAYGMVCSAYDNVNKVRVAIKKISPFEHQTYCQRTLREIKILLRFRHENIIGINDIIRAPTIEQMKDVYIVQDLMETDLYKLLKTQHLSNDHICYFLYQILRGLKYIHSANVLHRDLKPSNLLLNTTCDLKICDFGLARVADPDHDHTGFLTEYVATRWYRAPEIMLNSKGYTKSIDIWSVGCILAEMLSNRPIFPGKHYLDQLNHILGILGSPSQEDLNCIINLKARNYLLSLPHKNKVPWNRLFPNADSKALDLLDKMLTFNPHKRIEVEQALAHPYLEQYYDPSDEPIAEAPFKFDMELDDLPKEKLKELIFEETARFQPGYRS

[6] = species on record: Rattus norvegicus; test: Inhibition of rat AMPK at 1 uM relative to control; values are per cent of control
[7] = target: Hepatocyte growth factor receptor (Homo sapiens) (UniProt P08581); test: Inhibition of human Met at 1 uM relative to control; values are per cent of control
[8] = target: T1, Serine/threonine-protein kinase Sgk1 (Homo sapiens) (UniProt O00141); test: Inhibition of human SGK at 1 uM relative to control; values are per cent of control
T1 sequence (whole entry): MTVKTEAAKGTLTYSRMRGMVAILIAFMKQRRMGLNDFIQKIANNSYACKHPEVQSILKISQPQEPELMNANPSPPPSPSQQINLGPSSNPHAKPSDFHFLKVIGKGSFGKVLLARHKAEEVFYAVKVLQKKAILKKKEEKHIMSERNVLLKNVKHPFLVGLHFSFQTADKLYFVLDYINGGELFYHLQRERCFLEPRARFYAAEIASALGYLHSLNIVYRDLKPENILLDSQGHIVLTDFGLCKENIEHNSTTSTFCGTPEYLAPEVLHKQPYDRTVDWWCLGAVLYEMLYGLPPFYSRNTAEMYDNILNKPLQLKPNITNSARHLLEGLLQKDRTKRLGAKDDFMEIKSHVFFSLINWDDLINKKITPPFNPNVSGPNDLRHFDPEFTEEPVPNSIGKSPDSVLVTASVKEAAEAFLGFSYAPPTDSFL

[9] = target: Tyrosine-protein kinase SYK (Homo sapiens) (UniProt P43405); test: Inhibition of human Syk at 1 uM relative to control; values are per cent of control
[10] = target: T2, MAP kinase-activated protein kinase 5 (Homo sapiens) (UniProt Q8IW41); test: Inhibition of human PRAK at 1 uM relative to control; values are per cent of control
T2 sequence (whole entry): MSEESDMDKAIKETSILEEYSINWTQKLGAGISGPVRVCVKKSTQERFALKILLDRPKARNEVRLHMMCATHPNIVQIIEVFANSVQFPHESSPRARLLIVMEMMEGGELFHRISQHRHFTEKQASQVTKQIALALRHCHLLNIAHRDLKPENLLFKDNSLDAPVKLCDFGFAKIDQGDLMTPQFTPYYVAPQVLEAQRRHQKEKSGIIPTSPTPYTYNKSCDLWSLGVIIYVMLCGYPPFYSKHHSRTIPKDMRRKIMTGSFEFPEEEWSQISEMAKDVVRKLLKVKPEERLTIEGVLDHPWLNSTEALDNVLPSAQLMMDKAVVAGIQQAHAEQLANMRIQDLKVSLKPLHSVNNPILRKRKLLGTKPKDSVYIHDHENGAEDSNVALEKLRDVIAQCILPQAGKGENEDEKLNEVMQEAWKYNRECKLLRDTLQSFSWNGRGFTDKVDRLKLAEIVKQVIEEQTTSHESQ

[11] = target: Ribosomal protein S6 kinase alpha-3 (Homo sapiens) (UniProt P51812); test: Inhibition of human Rsk3 at 1 uM relative to control; values are per cent of control
Chain of Ribosomal protein S6 kinase alpha-3 (Homo sapiens) (P51812 whole entry): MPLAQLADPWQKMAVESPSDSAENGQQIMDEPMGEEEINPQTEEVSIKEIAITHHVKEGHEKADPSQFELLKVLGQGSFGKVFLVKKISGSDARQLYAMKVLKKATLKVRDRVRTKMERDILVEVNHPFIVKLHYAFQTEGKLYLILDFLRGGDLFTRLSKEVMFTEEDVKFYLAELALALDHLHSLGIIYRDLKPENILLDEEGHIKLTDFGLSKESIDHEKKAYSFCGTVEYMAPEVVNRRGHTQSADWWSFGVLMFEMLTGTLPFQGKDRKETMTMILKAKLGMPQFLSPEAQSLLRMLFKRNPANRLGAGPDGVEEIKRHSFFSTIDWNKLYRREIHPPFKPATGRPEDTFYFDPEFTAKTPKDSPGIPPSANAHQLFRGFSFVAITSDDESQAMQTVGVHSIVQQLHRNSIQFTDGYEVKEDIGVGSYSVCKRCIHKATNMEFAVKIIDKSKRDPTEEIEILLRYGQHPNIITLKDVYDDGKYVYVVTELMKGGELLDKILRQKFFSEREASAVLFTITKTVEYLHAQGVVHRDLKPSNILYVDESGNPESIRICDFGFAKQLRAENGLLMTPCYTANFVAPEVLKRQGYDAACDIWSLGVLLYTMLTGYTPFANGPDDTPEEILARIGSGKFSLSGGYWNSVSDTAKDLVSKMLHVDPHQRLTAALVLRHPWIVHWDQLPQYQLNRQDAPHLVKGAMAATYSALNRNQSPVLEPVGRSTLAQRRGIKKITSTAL

[12] = target: Rho-associated protein kinase 2 (Homo sapiens) (UniProt O75116); test: Inhibition of human ROCK2 at 1 uM relative to control; values are per cent of control
Chain of Rho-associated protein kinase 2 (Homo sapiens) (O75116 whole entry, looked up): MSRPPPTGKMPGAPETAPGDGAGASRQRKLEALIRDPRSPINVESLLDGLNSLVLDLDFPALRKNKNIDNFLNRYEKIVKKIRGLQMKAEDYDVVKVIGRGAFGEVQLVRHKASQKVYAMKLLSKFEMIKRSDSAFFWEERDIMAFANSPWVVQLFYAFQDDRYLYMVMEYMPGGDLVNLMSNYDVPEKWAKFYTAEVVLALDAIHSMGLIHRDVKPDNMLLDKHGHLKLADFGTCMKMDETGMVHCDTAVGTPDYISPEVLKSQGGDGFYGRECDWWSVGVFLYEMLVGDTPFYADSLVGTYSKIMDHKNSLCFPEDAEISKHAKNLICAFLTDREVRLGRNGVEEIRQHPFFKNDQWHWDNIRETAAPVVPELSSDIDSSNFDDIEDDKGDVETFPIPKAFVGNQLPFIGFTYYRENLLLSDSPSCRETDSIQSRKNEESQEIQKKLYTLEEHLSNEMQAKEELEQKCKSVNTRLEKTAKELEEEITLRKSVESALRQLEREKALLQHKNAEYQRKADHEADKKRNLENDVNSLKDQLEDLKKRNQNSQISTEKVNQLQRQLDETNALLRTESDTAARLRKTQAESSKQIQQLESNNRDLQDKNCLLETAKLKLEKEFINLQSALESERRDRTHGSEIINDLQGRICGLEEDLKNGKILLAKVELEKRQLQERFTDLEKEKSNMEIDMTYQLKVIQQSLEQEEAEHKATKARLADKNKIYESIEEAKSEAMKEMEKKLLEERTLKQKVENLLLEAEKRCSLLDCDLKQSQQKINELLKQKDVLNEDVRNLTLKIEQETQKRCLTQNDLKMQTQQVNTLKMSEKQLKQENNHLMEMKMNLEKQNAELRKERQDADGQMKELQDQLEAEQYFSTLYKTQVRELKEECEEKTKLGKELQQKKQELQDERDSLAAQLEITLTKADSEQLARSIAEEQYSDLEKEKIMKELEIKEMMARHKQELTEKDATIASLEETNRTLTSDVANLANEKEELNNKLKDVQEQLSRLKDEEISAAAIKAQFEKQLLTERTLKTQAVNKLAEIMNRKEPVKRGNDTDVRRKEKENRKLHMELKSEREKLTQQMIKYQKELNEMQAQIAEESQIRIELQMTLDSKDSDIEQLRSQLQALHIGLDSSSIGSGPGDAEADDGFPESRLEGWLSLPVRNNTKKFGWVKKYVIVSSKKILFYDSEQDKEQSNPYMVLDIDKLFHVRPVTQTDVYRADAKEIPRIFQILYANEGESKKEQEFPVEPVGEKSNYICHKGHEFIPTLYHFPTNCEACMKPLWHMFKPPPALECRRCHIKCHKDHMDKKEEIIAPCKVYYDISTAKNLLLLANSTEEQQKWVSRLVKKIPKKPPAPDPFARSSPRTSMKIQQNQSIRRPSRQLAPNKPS

[13] = target: T3, Mitogen-activated protein kinase 13 (Homo sapiens) (UniProt O15264); test: Inhibition of human SAPK4 at 1 uM relative to control; values are per cent of control
T3 sequence (whole entry): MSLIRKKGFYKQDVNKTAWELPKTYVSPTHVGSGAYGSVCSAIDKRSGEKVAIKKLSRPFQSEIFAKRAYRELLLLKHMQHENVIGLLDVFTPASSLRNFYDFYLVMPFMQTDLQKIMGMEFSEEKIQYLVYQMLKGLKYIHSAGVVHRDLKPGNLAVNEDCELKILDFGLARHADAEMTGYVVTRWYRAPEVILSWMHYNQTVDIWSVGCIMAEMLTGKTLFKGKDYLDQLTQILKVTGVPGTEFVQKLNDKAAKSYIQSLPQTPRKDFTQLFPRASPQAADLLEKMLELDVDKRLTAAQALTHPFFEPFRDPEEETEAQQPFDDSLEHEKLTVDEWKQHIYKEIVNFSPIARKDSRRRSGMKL

[14] = target: Ribosomal protein S6 kinase beta-1 (Homo sapiens) (UniProt P23443); test: Inhibition of human p70S6K at 1 uM relative to control; values are per cent of control
Chain of Ribosomal protein S6 kinase beta-1 (Homo sapiens) (P23443 whole entry, looked up): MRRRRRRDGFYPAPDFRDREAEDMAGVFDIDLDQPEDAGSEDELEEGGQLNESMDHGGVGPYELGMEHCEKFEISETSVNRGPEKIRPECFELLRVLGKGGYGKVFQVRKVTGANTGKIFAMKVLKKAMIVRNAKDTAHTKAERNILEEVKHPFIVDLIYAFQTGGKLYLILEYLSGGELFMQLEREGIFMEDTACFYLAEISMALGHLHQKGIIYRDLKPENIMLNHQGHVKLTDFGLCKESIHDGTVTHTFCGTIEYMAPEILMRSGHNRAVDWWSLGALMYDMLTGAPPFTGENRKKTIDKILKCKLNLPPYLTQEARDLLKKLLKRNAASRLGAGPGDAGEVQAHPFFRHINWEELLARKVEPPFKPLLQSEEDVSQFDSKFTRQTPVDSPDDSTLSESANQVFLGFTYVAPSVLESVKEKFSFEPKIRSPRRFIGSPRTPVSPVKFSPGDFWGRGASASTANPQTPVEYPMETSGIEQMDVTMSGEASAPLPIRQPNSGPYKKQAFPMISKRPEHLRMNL

[15] = target: Mitogen-activated protein kinase 14 (Homo sapiens) (UniProt Q16539); test: Inhibition of human SAPK2a at 1 uM relative to control; values are per cent of control
Chain of Mitogen-activated protein kinase 14 (Homo sapiens) (Q16539 whole entry): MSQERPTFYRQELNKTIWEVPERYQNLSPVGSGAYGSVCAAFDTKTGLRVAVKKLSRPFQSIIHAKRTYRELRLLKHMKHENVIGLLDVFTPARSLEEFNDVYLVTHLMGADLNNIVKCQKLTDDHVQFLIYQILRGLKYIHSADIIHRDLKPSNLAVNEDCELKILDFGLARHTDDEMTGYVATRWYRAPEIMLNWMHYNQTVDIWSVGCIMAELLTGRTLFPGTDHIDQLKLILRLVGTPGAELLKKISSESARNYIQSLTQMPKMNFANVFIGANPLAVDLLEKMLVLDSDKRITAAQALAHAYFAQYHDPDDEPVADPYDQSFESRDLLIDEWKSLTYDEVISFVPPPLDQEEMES

[16] = target: T4, Dual specificity mitogen-activated protein kinase kinase 7 (Homo sapiens) (UniProt O14733); test: Inhibition of human MKK7-beta at 1 uM relative to control; values are per cent of control
T4 sequence (whole entry): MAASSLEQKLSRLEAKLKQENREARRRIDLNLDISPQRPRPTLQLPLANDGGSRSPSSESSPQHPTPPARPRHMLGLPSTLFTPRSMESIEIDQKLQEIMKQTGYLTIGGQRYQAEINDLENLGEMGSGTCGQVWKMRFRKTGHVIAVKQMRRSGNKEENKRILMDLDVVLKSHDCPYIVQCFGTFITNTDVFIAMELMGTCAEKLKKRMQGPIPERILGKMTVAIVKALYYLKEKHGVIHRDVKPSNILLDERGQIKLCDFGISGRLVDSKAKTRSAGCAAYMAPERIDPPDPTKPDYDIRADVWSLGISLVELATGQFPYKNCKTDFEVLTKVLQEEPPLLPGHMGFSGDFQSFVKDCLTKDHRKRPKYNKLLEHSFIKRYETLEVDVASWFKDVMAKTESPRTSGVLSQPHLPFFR

Chain of Glycogen synthase kinase-3 beta (P49841 whole entry): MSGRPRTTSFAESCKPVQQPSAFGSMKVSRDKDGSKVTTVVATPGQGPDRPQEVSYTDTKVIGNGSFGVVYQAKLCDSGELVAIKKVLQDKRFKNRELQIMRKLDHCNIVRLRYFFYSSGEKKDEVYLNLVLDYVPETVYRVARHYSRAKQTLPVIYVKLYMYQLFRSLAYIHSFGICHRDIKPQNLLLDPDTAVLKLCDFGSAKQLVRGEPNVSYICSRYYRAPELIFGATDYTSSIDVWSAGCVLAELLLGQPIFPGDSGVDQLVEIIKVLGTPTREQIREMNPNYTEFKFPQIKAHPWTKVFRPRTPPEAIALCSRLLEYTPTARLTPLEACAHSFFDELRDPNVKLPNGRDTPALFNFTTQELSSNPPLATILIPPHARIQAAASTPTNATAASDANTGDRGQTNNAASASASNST
Chain of Tyrosine-protein kinase ABL2 (Mus musculus) (Q4JIM5 whole entry): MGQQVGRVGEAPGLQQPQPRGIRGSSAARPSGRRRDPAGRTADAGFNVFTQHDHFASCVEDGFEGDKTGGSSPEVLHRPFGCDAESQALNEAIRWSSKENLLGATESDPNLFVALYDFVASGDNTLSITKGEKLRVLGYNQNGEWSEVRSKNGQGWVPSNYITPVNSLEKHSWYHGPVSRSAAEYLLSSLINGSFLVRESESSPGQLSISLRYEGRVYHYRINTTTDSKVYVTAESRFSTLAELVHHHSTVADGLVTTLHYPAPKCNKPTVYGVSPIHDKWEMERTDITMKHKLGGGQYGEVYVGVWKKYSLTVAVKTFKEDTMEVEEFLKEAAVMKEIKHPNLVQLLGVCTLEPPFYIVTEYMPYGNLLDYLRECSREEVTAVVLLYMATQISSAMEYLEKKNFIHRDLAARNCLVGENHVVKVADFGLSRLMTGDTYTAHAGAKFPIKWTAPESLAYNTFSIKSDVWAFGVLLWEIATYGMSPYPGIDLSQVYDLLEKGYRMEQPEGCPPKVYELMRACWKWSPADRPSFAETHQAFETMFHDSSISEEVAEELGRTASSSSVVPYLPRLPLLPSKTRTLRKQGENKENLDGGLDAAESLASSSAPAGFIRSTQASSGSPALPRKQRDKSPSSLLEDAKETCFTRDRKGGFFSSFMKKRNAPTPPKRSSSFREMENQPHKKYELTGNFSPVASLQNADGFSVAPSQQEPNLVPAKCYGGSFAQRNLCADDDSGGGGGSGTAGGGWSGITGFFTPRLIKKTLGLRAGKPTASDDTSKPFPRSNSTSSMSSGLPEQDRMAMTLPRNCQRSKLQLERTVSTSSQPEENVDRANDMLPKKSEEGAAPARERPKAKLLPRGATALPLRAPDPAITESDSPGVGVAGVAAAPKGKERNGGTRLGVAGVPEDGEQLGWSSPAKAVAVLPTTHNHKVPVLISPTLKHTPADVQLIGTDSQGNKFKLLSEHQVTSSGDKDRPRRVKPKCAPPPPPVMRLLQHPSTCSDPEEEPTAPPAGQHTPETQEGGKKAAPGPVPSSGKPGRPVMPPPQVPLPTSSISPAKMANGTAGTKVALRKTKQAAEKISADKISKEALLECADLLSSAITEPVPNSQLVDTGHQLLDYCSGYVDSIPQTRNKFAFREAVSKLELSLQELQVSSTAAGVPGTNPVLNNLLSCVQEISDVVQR

| Compound | IC50 [1] | residual activity [2] | residual activity [3] | residual activity [4] | residual activity [5] | residual activity [6] | residual activity [7] | residual activity [8] | residual activity [9] | residual activity [10] | residual activity [11] | residual activity [12] | residual activity [13] | residual activity [14] | residual activity [15] | residual activity [16] |
| --- | --- | --- | --- | --- | --- | --- | --- | --- | --- | --- | --- | --- | --- | --- | --- | --- |
| CN(C)c1cc2cc(n1)CCCn1cc(c3ccccc31)C1=C(C(=O)NC1=O)c1cn(c3ccccc13)CCC2 | 7 nM | 129% | 71% | 114% | 86% | 101% | 132% | 105% | 101% | 96% | 5% | 103% | 104% | 91% | 92% | 78% |
| O=C1NC(=O)C2=C1c1cn(c3ccccc13)CCCc1cc(nc(N3CCCC3)c1)CCCn1cc2c2ccccc21 | 11 nM | 121% | 77% | 112% | 99% | 105% | 129% | 109% | 105% | 101% | 5% | 107% | 102% | 95% | 92% | 97% |
| O=C1NC(=O)C2=C1c1cn(c3ccccc13)CCCc1ccc(c(N3CCCC3)n1)CCCn1cc2c2ccccc21 | 30 nM | 130% | 85% | 106% | 110% | 99% | 132% | 93% | 109% | 102% | 25% | 104% | 102% | 84% | 93% | 85% |
| CN(C)c1nc2ccc1CCCn1cc(c3ccccc31)C1=C(C(=O)NC1=O)c1cn(c3ccccc13)CC2 | 3 nM | 113% | 86% | 94% | 97% | 101% | 121% | 93% | 86% | 88% | 33% | 110% | 101% | 98% | 108% | 88% |
